Results from BindingDB's records for doi:10.1210/en.2002-221074 (National Institute of Diabetes and Digestive and Kidney …, 2003).

Assays:
[1] = biological target: T1, Thyrotropin-releasing hormone receptor (Xenopus laevis, UniProt Q9DDR1)
T1 sequence (Q9DDR1 whole entry): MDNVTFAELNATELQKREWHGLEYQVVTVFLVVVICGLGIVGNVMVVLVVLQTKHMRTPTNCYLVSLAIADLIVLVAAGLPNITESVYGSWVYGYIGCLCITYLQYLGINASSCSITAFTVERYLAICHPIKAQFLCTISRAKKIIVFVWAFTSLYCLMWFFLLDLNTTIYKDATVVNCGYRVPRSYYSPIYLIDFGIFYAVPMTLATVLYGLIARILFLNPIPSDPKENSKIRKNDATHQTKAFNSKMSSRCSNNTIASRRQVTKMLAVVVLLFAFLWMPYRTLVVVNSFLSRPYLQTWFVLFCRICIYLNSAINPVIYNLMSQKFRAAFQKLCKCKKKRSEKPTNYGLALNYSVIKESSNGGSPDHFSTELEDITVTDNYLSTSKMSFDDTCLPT

[2] = biological target: T2, Pro-thyrotropin-releasing hormone-B (Xenopus sp., UniProt Q00643)
T2 sequence (Q00643 whole entry): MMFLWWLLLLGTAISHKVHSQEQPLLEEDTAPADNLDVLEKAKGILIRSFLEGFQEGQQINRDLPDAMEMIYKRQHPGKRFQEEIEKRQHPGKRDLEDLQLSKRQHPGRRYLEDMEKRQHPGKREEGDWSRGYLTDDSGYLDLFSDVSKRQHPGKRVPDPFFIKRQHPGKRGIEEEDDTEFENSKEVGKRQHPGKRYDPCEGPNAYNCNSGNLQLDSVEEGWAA

[3] = biological target: T3, Thyrotropin-releasing hormone receptor (Mus musculus, UniProt P21761)
T3 sequence (P21761 whole entry): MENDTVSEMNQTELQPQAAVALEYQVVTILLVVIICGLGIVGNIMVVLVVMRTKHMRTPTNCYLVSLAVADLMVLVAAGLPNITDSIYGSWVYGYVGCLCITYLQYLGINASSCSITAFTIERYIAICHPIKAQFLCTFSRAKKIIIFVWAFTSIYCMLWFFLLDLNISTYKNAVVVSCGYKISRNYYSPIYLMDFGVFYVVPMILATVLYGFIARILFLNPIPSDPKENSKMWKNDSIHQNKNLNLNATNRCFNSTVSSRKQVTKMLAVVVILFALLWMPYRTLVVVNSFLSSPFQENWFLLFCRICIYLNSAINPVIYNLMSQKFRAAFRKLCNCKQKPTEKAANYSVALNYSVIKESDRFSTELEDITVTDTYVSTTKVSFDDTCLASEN

Ki [1] | Ki [2] | Ki [3] | SMILES
3 µM | > 10 µM | – | NC(=O)C1CCCN1C(=O)C(Cc1cnc[nH]1)NC(=O)C1CCC(=O)C1 (stereo not given) [Desaza1TRH]
> 10 µM | > 10 µM | > 10 µM | NC(=O)C1CCCN1C(=O)C(Cc1cnc[nH]1)NC(=O)[C@@H]1CCC(=O)C1 (stereo not given in full) [Pyr3TRH]
